Data as given in PMC10052652 (Molecules, 2023).
“And” between values parts separate entries of the source, which are not always exact repeats. Equal values may be shown once. Read-outs that look alike come from different tables or passages of the source.

Columns and labels:
MCF7 cells = experiment: Cytotoxic activity, MTT assay, MCF7; type: cell-based, human
Procedure: Optical density was measured at 540 nm. All tests were established in triplicate.

[1] = molecular target: T1, superoxide dismutase (SOD) (Homo sapiens, UniProt P00441); experiment: biochemical
Procedure: Pyrogallol auto-oxidation due to oxygen in the air can be inhibited by an enzyme that is naturally present in the body: superoxide dismutase (SOD). Furthermore, variations in the pyrogallol auto-oxidation rate in the presence of SOD were evaluated. Tests were carried out in triplicate. The objective was to find an inhibitor of the auto-oxidation of pyrogallol in the presence of a SOD enzyme solution. Samples were tested at a concentration of 50 µg/mL, followed by incubation for 4 min at 25 °C. […] The self-oxidation of pyrogallol was evaluated in the absence of the enzyme. For this, 30 µL of pyrogallol was added to 120 µL of tris buffer (in place of the SOD) (pH 8.5), then followed by the same steps of incubating a positive control (without the molecule); this was performed in the presence of 5% of DMSO to evaluate the percentage of SOD inhibition activity on the auto-oxidation of pyrogallol.

IGROV-1 cells = experiment: Cytotoxic activity, MTT assay, IGROV-1; conditions: for Cytotoxic activity against IGROV-1 (in words): at 100 µM; for IC50: Homo sapiens, IGROV-1, read-out: IC50 IGROV-1
Procedure: (§1) The cancer cell lines used in this study were HCT116 (colorectal carcinoma), IGROV1 (ovarian cancer), OVCAR3 (ovarian cancer), and MCF7 (mammary gland/breast cancer). […] Cell lines were maintained in culture and were incubated at 37 °C in an incubator with 5% CO2 in a humidified atmosphere. All tests were established at 80% of confluence, and viability was estimated with a trypan blue exclusion assay.
(§2) The cytotoxic activities of molecules against cancer cell lines were evaluated using an MTT assay. The MTT colorimetric assay was performed using 96-well plates. Cells were seeded in a 96-well plate, at a concentration of 10 × 10^3 cells/well for HCT116 and 12 × 10^3 cells/well for MCF7, IGROV1, and OVAR. Adherent cells were dispatched and incubated at 37 °C overnight in a 5% CO2-enriched atmosphere. Cells in the exponential growth phase were incubated at 37 °C for 72 h, with each tested sample at 50 µg/mL. After that, the medium was removed, and cells were treated with 50 µL of 3-(4,5-dimethylthazolk-2-yl)-2,5-diphenyl tetrazolium bromide (MTT) solution (3 mg/mL in PBS) at 37 °C for 20 to 40 min. To dissolve the […], we added 80 µL of 100% DMSO. Optical density was measured at 540 nm. All tests were established in triplicate. The anti-cancer effect of samples was estimated in terms of growth inhibition percentage.

[2] = molecular target: T1, superoxide dismutase (SOD); type: biochemical; conditions: at 100 µM
[3] = molecular target: T2, acetylcholinesterase (AChE) (Homo sapiens, UniProt P22303); type: biochemical; conditions: at 100 µM
OVCAR-3 cells = experiment: Cytotoxic activity, MTT assay, OVCAR-3; type: cell-based; conditions: Homo sapiens, OVCAR-3, 72 h, read-out: IC50 OVCAR-3
Procedure: as §1
as §2, with “Cells in the exponential growth phase were incubated at 37 °C for 72 h, with each tested sample at 50 µg/mL.” left out, “The anti-cancer effect of samples was estimated in terms of growth inhibition percentage.” left out

[4] = ABTS radical cation scavenging assay; conditions: for ABTS Assay %: at 100 µM
Procedure: ABTS (2,2′-azinobis-3-ethylbenzothiazoline-6-sulfonate) assay
The radical scavenging capacity of antioxidants for the ABTS radical cation was evaluated following this method: ABTS was prepared by adding 7 mM solution of ABTS at pH 7.4 (5 mM NaH2PO4, 5 mM Na2HPO4, and 154 mM NaCl) with 2.5 mM potassium persulfate. The mixture was stored at room temperature for 16 h in the dark before use and prepared […]. Once diluted with persulfate buffer, the absorbance of the mixture yielded an absorbance value of 0.70 ± 0.05 units at 734 nm. Then, 20 µL of each tested sample was mixed with fresh ABTS solution (180 µL), then the absorbance was measured 6 min after the initial mixing. Ascorbic acid was used as a standard. The capacity of free radical scavenging was expressed as a percentage of the inhibition values. The percentage of inhibition is calculated using the same expression employed in the DPPH assay.

HCT116 cells = experiment: Cytotoxic activity, MTT assay, HCT116; type: cell-based, human
Procedure: as §1
as §2, with “Cells in the exponential growth phase were incubated at 37 °C for 72 h, with each tested sample at 50 µg/mL.” left out, “The anti-cancer effect of samples was estimated in terms of growth inhibition percentage.” left out

xanthine oxidase (XOD) = xanthine oxidase (XOD) (Homo sapiens, UniProt P47989); experiment: biochemical
Procedure: Anti-xanthine oxidase activity was assayed spectrophotometrically under aerobic conditions. First, 50 µL (50 µg/mL) of samples were added to 60 µL of phosphate buffer (pH 7.5) and 30 µL of xanthine oxidase enzyme solution (0.01 units/mL in phosphate buffer; pH 7.5). After pre-incubation at 25 °C for 15 min, the reaction was initiated by the addition of 60 µL of xanthine substrate solution (prepared in the same buffer). The assay mixture was incubated at 25 °C for 5 min. […] The assay was performed in triplicate. […] Tests were carried out in triplicate.

[5] = molecular target: T2, acetylcholinesterase (AChE); experiment: biochemical
Procedure: The enzymatic activity was assessed via a modified colorimetric Ellman′s method. First, 50 µL of Tris-HCl buffer (pH 8), 25µL of a buffer solution of the sample (50 µg/mL), and 25 µL of an acetylcholinesterase (AChE) enzyme solution containing 2.8 U/mL were mixed. A reaction was then initiated via the addition of 125 µL of 3 mM […]. After incubation for 15 min at 25 °C, 25 µL of a solution of iodide acetylthiocholine15 mM was added to a 96-well microplate. […] Inhibition (%) was calculated in the following way: Inhibition (%) = [(A control − A sample)/A control] × 100, where (A sample) is the absorbance of the molecule containing the reaction and (A control) is the absorbance of the reaction control. Tests were carried out in triplicate.

[6] = Homo sapiens, HCT-116, 72 h, read-out: IC50 HCT116, MTT, 72 h
[7] = read-out: IC50 HCT116, MTT, 72 h

T2 sequence (P22303 32-614, species assumed): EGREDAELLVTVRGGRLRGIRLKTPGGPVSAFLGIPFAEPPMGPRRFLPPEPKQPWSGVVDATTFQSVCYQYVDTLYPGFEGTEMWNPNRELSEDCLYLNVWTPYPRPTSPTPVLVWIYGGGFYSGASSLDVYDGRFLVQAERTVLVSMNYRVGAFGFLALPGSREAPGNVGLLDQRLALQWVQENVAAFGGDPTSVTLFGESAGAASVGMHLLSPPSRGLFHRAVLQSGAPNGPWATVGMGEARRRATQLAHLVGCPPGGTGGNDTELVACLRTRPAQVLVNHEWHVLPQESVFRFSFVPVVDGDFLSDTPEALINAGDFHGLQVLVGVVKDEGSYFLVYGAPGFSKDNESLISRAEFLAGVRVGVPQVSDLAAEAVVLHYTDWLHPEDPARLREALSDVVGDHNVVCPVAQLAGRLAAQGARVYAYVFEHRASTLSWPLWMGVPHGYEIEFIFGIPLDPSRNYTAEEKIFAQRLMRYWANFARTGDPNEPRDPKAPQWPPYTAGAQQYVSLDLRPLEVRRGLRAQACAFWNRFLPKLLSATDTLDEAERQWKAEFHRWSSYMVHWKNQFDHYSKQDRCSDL
T1 sequence (P00441 whole entry): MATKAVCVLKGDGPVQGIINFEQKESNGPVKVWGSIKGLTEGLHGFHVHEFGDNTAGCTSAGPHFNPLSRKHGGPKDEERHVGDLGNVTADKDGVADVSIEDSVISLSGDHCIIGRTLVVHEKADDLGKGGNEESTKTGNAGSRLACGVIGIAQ
Sequence of xanthine oxidase (XOD) (P47989 whole entry, species assumed): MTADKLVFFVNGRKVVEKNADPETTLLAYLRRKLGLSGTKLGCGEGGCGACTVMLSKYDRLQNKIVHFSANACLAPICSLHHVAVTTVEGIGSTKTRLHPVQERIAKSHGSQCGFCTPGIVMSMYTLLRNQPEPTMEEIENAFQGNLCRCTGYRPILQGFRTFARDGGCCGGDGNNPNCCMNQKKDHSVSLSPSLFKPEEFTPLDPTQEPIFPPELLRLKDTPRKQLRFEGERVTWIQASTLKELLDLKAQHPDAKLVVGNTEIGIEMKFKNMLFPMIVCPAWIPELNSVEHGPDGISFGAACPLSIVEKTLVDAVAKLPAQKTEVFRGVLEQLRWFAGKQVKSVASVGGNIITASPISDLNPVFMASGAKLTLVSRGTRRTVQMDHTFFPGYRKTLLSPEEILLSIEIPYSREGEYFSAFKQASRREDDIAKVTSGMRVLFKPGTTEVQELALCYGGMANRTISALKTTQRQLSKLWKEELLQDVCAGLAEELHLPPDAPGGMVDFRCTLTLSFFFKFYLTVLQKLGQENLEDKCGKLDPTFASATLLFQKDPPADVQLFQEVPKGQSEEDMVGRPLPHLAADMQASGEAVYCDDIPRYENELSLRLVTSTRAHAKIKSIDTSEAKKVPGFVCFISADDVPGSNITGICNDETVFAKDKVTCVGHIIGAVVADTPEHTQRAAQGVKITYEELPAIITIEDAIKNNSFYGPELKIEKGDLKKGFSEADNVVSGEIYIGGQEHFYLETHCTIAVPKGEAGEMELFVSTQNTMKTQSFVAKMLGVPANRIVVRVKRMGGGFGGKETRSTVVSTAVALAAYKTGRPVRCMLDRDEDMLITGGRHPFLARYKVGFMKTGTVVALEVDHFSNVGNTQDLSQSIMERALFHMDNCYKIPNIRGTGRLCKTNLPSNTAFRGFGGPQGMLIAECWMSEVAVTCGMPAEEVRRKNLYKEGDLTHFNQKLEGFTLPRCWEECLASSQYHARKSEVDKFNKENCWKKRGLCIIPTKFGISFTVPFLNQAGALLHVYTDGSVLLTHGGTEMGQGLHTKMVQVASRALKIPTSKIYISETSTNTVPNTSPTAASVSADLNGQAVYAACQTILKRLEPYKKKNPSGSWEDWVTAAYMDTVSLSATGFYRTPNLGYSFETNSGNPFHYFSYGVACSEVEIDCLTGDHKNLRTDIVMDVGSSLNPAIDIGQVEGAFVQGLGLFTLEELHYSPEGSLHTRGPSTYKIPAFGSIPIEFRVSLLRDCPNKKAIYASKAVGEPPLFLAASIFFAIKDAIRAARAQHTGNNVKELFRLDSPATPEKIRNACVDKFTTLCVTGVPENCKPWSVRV

| Structure (SMILES) | IC50 (MCF7 cells; Homo sapiens, MCF7, 72 h) | IC50 ([1]; Anti SOD IC50) | Cytotoxic activity against IGROV-1 (in words) (IGROV-1 cells) | Anti SOD % [2] | Anti ACHE % [3] | IC50 (OVCAR-3 cells) | IC50 [4] | IC50 (HCT116 cells; [6]) | IC50 (HCT116 cells; [7]) | IC50 (xanthine oxidase (XOD)) | IC50 [5] | IC50 ([1]; read-out: Anti SOD IC50) | IC50 (IGROV-1 cells) | IC50 (xanthine oxidase (XOD); read-out: Anti XOD IC50) | IC50 ([5]; read-out: Anti ACHE IC50) | IC50 (MCF7 cells; 72 h) | ABTS Assay % [4] |
| --- | --- | --- | --- | --- | --- | --- | --- | --- | --- | --- | --- | --- | --- | --- | --- | --- | --- |
| O=c1cc(-c2ccccc2)oc2cc(O)cc(O)c12 [Molecule M1, 5,7-dihydroxyflavone] | 35.9 ± 0.8 µM | > 100 µM | most active | 41.5 ± 1.8% | 45.8 ± 1.3% | > 50 µM | > 50 µM | > 100 µM | > 50 µM | > 100 µM | > 100 µM | – | – | – | – | – | – |
| COc1ccc(-c2oc3c(CC=C(C)C)c(O[C@@H]4O[C@H](CO)[C@@H](O)[C@H](O)[C@H]4O)cc(O)c3c(=O)c2O[C@@H]2O[C@@H](C)[C@H](O)[C@@H](O)[C@H]2O)cc1 [Molecule M2, Icariin] | > 100 µM | – | not active | 61.7 ± 1.1% | 19.3 ± 0.3% | > 50 µM | 20.1 ± 0.1 µM | > 50 µM | – | – | > 100 µM | > 50 µM | > 100 µM | > 100 µM | – | – | – |
| O=c1cc(-c2ccccc2)oc2ccc(O)cc12 [Molecule M3, 6-hydroxyflavone] | > 50 µM | – | most active | 54.8 ± 3.2% | – | 44.7 ± 1.2 µM | 24 ± 0.1 µM | > 100 µM | > 50 µM | – | – | > 50 µM | – | > 100 µM | > 100 µM | – | – |
| O=c1cc(-c2ccccc2)oc2cccc(O)c12 [Molecule M4, 5-hydroxyflavone] | > 50 µM | > 100 µM | – | 25.9 ± 2.5% | – | > 50 µM | > 100 µM | > 100 µM | > 50 µM | > 100 µM | > 100 µM | – | – | – | – | > 100 µM | 16.0 ± 1.5% |
| O=c1cc(-c2ccccc2)oc2cc(O)ccc12 [Molecule M5, 7-hydroxyflavone] | > 50 µM | – | most active | 74.3 ± 3.1% and 74.3 ± 3.02% | – | > 50 µM | > 100 µM | > 100 µM | > 50 µM | – | > 100 µM | 36.5 ± 1.2 µM | – | > 100 µM | – | – | 5.9 ± 0.4% |
| O=c1cc(-c2ccccc2)oc2cc(O)c(O)c(O)c12 [Molecule M7, 5,6,7-trihydroxyflavone] | 33.1 ± 1.4 µM | 36.5 ± 1.2 µM | – | 71.2 ± 2.3% | 62.0 ± 1.9% | > 50 µM | 6.3 ± 0.1 µM | 38.5 ± 1.3 µM | – | – | 10.2 ± 3 µM | 31.5 ± 0.5 µM | – | > 100 µM | – | – | – |
| O=c1cc(-c2cc(O)cc(O)c2)oc2ccccc12 [Molecule M8, 3′,5′-dihydroxyflavone] | 40.4 ± 0.7 µM | – | most active | 52.3 ± 0.9% | 49.3 ± 2.2% | > 50 µM | 7.3 ± 0.1 µM | 33.1 ± 0.1 µM | – | – | – | > 50 µM | – | 2.3 ± 0.1 µM | > 100 µM | – | – |
| O=c1cc(-c2cccc(O)c2)oc2ccc3ccccc3c12 [Molecule M9, 3′-hydroxy-b-naphthoflavone] | > 50 µM | – | not active | 19.8 ± 2.9% | 47.9 ± 4.0% | > 50 µM | > 100 µM | > 50 µM | – | – | – | > 100 µM | > 100 µM | > 100 µM | > 100 µM | – | – |
| O=c1cc(-c2cccc(O)c2)oc2cc(O)ccc12 [Molecule M13, 7,3′-dihydroxyflavone] | 38.5 ± 1.2 µM | – | most active | 56.6 ± 1.7% | 63.9 ± 3.3% | > 50 µM | 24.5 ± 0.1 µM | 39.3 ± 0.8 µM | – | – | – | > 50 µM | – | 0.9 ± 0.2 µM | > 50 µM | – | – |
